Results on two molecules are retold here after patent EP1884243A1, “Use of an antipsychotic drug for the treatment of ALS-associated cachexia” (Charité - Universitätsmedizin Berlin, priority 2006, dated 2008).

Structures are written as SMILES.

One series deals with ALS. As to conditions: ALS patients; background statement on the approved therapy; cited from earlier work.
The subject of series [1] is ALS-related cachexia. In words: Study 2: olanzapine treatment of ALS-related cachexia, case report of a patient. Format: in vivo, human being. From the text:
A patient is reported, who developed a slowly-progressive motor neuron syndrome. The patient fulfilled the criteria for ALS. The disease began with atrophy and weakness of the small muscles of the right hand followed by weakness of the proximal muscles of right arm and the opposite upper limb. In the course of 4 years after onset they experienced progressive atrophy and flaccid paresis of the lower limbs resulting in a gait disorder. […] The patient was without dysphagia.
During the course of 12 months, the patient developed an unintended weight loss of 8.5 kg of body weight. The weight loss was associated with fatigue. The patient suffered from diminished appetite. The body mass index (BMI) reduced from 23.3 kg/ m^2 to 20.5 kg/m^2. At the same time the ALS functional rating scale (ALS-FRS revised) changed from 43 to 39 units. Most of the wasting occurred within 6 month before intervention (loss of 6.5 kg of body weight; total body weight of 61.5 kg). For the pharmacological intervention of ALS-related cachexia the medication with olanzapine was initiated. Olanzapine was given orally in the dosage of 5 mg per day. Olanzapine was administered once daily using one tablet of olanzapine 5 mg in the evening. The medication attenuated ALS-related cachexia and wasting. After 2 month of olanzapine treatment the body weight was stabilized (61.0 kg). The loss of BMI was also attenuated (20.3 kg/m^2). […] Residual motor functions were mobilized. […] At the time of this report, the olanzapine dosage was increased to 10 mg per day. Olanzapine was administered twice daily using one tablet of olanzapine 5 mg each in the morning and in the evening. […] The olanzapine treatment was ongoing. Based on reports on olanzapine-related weight gain in patients with psychosis, the target dose of olanzapine for the treatment of ALS-cachexia is 20 mg per day. In the case of persistent ALS-related weight loss, the treatment with 30 mg olanzapine per day is recommended.

Series [2] concerns ALS-related cachexia. In words: Study 3: olanzapine treatment of ALS-related cachexia, case report of a patient. It is filed as in vivo, human being. From the text: A patient is reported, who developed a slowly-progressive motor neuron syndrome. The patient fulfilled the criteria for ALS. The disease began with atrophy and weakness of the proximal left arm followed by weakness of the distal muscles of left upper limb. In the course of 2 years after onset they experienced progressive atrophy and flaccid paresis of the opposite limb with only residual functions in handling articles. After 3 years the disorder progressed to the point that was complete loss of manual functions. The patient developed hypoventilation resulting in ventilatory support using non-invasive intermittent positive pressure ventilation (NIPPV). The patient was without dysphagia.
During the course of 9 months, the patient developed an unintended weight loss of 14.5 kg of body weight. The weight loss was associated with fatigue. The patient suffered from diminished appetite. The body mass index (BMI) reduced from 23.0 kg/ m^2 to 17.5 kg/m^2. Most of the wasting occurred within 5 month before intervention (loss of 8.5 kg of body weight; total body weight reduced from 55 kg to 46.5 kg). For the pharmacological intervention of ALS-related cachexia the medication with olanzapine was initiated. Olanzapine was given orally in the dosage of 5 mg per day. Olanzapine was administered once daily using one tablet of olanzapine 5 mg in the evening. After 4 weeks of treatment, olanzapine dosage was increased to 10 mg per day. Olanzapine was administered twice daily using one tablet of olanzapine 5 mg each in the morning and in the evening. The medication attenuated ALS-related cachexia and wasting. After 2 month of olanzapine treatment the body weight was stabilized (45.5 kg). The loss of BMI was also attenuated (17.1 kg/m^2). The nutritional state and the general strength improved. […] The olanzapine treatment was ongoing. Based on reports on olanzapine-related weight gain in patients with psychosis, the target dose of olanzapine for the treatment of ALS-cachexia is 20 mg per day. In the case of persistent ALS-related weight loss, the treatment with 30 mg olanzapine per day is recommended.

The test system of series [3] is ALS-related cachexia. In words: Study: olanzapine treatment of ALS-related cachexia, case report of a patient. Format: in vivo, human being. The source says:
A patient is reported, who developed a slowly-progressive motor neuron syndrome. The patient fulfilled the criteria for definite ALS. The disease began with atrophy and weakness of the small muscles of the left hand followed by weakness of the right distal arm. In the course of 2 years after onset they experienced slowly progressive atrophy and flaccid paresis of the upper limbs with only residual functions in handling articles. After 4 years they developed a gait disorder which progressed to the point were they required a walking-aid. […] The patient was without dysphagia.
During the course of 10 months, the patient developed an unintended weight loss of 12 kg of body weight resulting in fatigue and reduced mobility. The patient suffered from diminished appetite. The body mass index (BMI) was 17.2 kg/m^2 and fulfilled the diagnostic criteria of cachexia. For the pharmacological intervention of ALS-related cachexia the medication with olanzapine was initiated. Olanzapine was given orally in the dosage of 5 mg per day. Olanzapine was administered twice daily using one tablet of olanzapine 2.5 mg each in the morning and in the evening. […] The BMI increased to 18,8 kg/m^2. […] Residual motor functions were mobilized. […] At the time of this report, the olanzapine treatment was ongoing.

On to `Nc1nc2ccc(OC(F)(F)F)cc2s1` [Riluzole], for which the “prolonging an ALS-patient's lifetime” value with ALS is on record as 1.5-2.5 months.
As for `Cc1cc2c(s1)Nc1ccccc1N=C2N1CCN(C)CC1` [olanzapine], the BMI in the series with ALS-related cachexia [1] (after 2 month of olanzapine 5 mg per day orally, BMI 20.5 kg/m^2 before intervention) is 20.3 kg/m^2; with ALS-related cachexia [2] (after 2 month of olanzapine (5 mg per day, after 4 weeks 10 mg per day, orally), BMI 17.5 kg/m^2 before intervention), 17.1 kg/m^2; in the series with ALS-related cachexia [3] (olanzapine orally 5 mg per day, after treatment (8 weeks), BMI before treatment 17.2 kg/m^2) it was 18,8 kg/m^2. Further, the body weight in the series with ALS-related cachexia [1] (after 2 month of olanzapine 5 mg per day orally, total body weight 61.5 kg before intervention) is 61.0 kg; with ALS-related cachexia [2] (after 2 month of olanzapine (5 mg per day, after 4 weeks 10 mg per day, orally), 46.5 kg before intervention) it was 45.5 kg. The adverse events result was “not associated with adverse events” in the series with ALS-related cachexia [1] (olanzapine orally 5 mg per day, later increased to 10 mg per day); “not associated with adverse events” in the series with ALS-related cachexia [2] (olanzapine orally 5 mg per day, after 4 weeks 10 mg per day); “not associated with adverse events” with ALS-related cachexia [3] (olanzapine orally 5 mg per day). The molecule also returned a weight gain in the series with ALS-related cachexia [3] (olanzapine orally 5 mg per day (2.5 mg twice daily), within the course of 8 weeks, patient, BMI 17.2 kg/m^2 before treatment) of 6 kg.
